How the values were obtained:
Homo sapiens = species: Homo sapiens; test: Selectivity ratio of IC50 for N-terminal GST-tagged human PDE6C to IC50 for N-terminal GST-tagged human PDE5A1
[1] = Volume of distribution at steady state in iv dosed rat; format: ADME, organism-based; conditions: in vivo
[2] = target: High affinity cAMP-specific and IBMX-insensitive 3',5'-cyclic phosphodiesterase 8A (Homo sapiens, UniProt O60658); test: Inhibition of N-terminal GST-tagged full length human PDE8A1 expressed in baculovirus infected sf9 cells using [3H]cAMP as substrate measured after 30 mins by scintillation proximity assay
Sequence of High affinity cAMP-specific and IBMX-insensitive 3',5'-cyclic phosphodiesterase 8A (O60658 whole entry): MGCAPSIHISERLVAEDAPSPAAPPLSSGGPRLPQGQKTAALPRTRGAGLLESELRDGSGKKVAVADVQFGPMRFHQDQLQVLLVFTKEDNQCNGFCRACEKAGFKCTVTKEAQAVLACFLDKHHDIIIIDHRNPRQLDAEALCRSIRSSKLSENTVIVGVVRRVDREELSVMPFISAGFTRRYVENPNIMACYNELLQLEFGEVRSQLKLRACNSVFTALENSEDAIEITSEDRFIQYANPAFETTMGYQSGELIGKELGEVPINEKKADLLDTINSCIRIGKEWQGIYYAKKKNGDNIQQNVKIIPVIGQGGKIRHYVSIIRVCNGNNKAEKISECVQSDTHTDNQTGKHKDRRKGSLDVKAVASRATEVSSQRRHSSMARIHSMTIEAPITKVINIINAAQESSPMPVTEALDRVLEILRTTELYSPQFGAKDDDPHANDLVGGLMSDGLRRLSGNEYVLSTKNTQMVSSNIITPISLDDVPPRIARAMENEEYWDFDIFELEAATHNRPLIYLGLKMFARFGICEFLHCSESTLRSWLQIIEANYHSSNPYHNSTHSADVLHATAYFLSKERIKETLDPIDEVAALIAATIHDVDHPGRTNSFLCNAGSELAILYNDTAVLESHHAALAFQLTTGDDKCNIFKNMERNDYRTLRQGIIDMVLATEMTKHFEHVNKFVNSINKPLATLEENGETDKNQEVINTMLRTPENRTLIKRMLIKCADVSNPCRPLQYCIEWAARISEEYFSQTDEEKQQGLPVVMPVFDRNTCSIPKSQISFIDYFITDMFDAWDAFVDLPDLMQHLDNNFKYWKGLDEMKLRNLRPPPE

Phosphodiesterase 1 = Phosphodiesterase 1 (Homo sapiens, UniProt P54750+Q01064+Q14123); test: Inhibition of N-terminal GST-tagged human PDE1 expressed in baculovirus infected sf9 cells using [3H]cAMP as substrate measured after 30 mins by scintillation proximity assay
Phosphodiesterase 7 = Phosphodiesterase 7 (Homo sapiens, UniProt Q13946+Q9NP56); test: Inhibition of N-terminal GST-tagged human PDE7 expressed in baculovirus infected sf9 cells using [3H]cAMP as substrate measured after 30 mins by scintillation proximity assay
[3] = target: cGMP-dependent 3',5'-cyclic phosphodiesterase (Homo sapiens, UniProt O00408); test: Inhibition of human PDE2A1 expressed in baculovirus infected sf9 cells using [3H]cAMP as substrate measured after 30 mins by scintillation proximity assay
Sequence of cGMP-dependent 3',5'-cyclic phosphodiesterase (O00408 whole entry): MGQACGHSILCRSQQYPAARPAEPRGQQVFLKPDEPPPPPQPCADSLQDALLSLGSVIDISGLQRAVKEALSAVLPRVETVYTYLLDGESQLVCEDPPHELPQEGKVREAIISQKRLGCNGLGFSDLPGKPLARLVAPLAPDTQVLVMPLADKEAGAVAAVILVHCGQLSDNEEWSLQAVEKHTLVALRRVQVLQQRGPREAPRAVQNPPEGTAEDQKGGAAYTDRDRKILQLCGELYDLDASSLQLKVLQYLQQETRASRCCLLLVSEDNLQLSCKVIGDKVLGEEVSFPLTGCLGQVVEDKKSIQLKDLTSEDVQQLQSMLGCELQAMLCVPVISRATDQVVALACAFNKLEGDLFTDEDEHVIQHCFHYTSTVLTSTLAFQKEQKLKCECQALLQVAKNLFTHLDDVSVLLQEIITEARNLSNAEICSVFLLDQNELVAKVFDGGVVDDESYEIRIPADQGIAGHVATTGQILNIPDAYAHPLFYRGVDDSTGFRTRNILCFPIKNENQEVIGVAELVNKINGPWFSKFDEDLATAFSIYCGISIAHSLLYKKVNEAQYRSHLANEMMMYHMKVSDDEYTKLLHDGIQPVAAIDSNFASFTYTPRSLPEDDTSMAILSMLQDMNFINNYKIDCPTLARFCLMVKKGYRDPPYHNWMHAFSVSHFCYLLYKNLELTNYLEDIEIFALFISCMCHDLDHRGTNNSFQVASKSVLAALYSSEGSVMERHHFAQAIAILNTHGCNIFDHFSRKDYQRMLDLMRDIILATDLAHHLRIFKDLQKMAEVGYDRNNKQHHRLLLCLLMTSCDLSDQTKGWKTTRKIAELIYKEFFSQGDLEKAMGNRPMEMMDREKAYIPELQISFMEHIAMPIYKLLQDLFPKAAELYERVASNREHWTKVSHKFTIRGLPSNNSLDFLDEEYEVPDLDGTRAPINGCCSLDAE

[4] = target: cAMP and cAMP-inhibited cGMP 3',5'-cyclic phosphodiesterase 10A (Homo sapiens, UniProt Q9Y233); test: Inhibition of N-terminal GST-tagged human PDE10A expressed in baculovirus infected sf9 cells using [3H]cAMP as substrate measured after 30 mins by scintillation proximity assay
Sequence of cAMP and cAMP-inhibited cGMP 3',5'-cyclic phosphodiesterase 10A (Q9Y233 whole entry): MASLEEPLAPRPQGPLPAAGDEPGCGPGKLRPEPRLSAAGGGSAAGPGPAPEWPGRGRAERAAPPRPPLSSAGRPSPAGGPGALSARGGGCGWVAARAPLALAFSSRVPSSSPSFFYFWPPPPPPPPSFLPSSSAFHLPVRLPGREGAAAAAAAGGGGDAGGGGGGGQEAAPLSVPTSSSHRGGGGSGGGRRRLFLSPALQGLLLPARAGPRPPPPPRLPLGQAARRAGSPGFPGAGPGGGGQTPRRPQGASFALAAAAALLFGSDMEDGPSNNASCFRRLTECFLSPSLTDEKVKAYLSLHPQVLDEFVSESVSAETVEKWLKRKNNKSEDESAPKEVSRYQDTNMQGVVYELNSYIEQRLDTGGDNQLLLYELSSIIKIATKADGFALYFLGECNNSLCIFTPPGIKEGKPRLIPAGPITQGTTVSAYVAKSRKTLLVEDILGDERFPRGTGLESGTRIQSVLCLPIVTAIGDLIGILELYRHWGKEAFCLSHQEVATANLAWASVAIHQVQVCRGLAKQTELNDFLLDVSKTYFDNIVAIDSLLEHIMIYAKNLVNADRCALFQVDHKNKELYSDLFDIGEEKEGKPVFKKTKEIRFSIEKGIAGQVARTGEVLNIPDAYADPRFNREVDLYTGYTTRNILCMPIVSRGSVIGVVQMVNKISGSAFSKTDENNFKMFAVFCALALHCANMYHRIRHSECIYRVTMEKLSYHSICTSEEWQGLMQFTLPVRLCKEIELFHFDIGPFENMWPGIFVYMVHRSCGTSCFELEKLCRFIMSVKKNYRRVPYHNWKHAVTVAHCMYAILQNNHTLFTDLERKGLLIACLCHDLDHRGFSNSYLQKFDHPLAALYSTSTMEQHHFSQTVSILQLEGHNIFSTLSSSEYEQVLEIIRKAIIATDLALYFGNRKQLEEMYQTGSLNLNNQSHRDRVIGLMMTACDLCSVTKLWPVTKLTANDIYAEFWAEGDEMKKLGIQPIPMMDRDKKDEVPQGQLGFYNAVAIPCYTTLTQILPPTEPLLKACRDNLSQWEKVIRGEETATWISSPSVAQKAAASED

Phosphodiesterase 3 = Phosphodiesterase 3 (Homo sapiens, UniProt Q14432+Q13370); test: Inhibition of N-terminal GST-tagged human PDE3 expressed in baculovirus infected sf9 cells using [3H]cAMP as substrate measured after 30 mins by scintillation proximity assay
[5] = target: High affinity cGMP-specific 3',5'-cyclic phosphodiesterase 9A (Homo sapiens, UniProt O76083); test: Inhibition of N-terminal GST-tagged full length human PDE9A2 expressed in baculovirus infected sf9 cells using [3H]cGMP as substrate measured after 30 mins by scintillation proximity assay
Sequence of High affinity cGMP-specific 3',5'-cyclic phosphodiesterase 9A (O76083 whole entry): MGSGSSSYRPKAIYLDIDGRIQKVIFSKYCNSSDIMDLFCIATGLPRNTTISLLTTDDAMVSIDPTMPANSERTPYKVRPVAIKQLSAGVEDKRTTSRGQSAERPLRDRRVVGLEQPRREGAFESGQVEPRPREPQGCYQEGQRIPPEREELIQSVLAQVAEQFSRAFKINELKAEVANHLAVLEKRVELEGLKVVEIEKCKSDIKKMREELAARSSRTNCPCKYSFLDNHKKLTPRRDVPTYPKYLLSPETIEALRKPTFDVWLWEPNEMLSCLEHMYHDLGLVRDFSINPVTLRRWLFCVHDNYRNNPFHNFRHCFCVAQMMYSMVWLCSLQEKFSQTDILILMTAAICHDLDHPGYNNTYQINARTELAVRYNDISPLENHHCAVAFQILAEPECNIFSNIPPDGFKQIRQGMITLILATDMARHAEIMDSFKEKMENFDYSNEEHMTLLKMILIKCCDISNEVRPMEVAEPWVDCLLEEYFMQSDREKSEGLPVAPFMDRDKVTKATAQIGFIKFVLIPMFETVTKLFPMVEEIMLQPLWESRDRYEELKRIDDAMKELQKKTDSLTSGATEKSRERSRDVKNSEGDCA

[6] = Clearance in iv dosed rat; format: ADME, organism-based; conditions: in vivo
[7] = Metabolic stability in human liver microsomes assessed as parent compound remaining at 1 uM in presence of NADPH after 30 mins by LC-MS/MS analysis; format: ADME, Microsome; conditions: read-out: Stability
[8] = target: cGMP-specific 3',5'-cyclic phosphodiesterase (Homo sapiens, UniProt O76074); test: Inhibition of N-terminal GST-tagged human PDE5A1 expressed in baculovirus infected sf9 cells using [3H]cGMP as substrate measured after 30 mins by scintillation proximity assay

Structure (SMILES) | Ratio IC50 (Homo sapiens) | IC50 [8] [nM] | further results
CCCOc1ccc(S(=O)(=O)N(CCO)CCN2CCOCC2)cc1-c1nc(CC)c(CC)c(=O)[nH]1 | 10 |  | 
CN1CC(=O)N2[C@H](c3ccc4c(c3)OCO4)c3[nH]c4ccccc4c3C[C@@H]2C1=O |  |  | Vdss [1]: 5.2 L/kg; IC50 [2]: > 10000 nM; IC50 (Phosphodiesterase 1): > 10000 nM; IC50 (Phosphodiesterase 7): > 10000 nM; IC50 [3]: > 10000 nM; IC50 [4]: > 10000 nM; IC50 (Phosphodiesterase 3): > 10000 nM; IC50 [5]: > 10000 nM; CL [6]: 5.17 mL/min/kg
CCCOc1ccc(S(=O)(=O)N2CCN(C)CC2)cc1-c1nc(CC)c(CC)c(=O)[nH]1 |  |  | remaining at 0.5 h, 1 µM [7]: 29%
CCCOc1ccc(NC(=O)N2CCCC2)cc1-c1nc(CC)c(CC)c(=O)[nH]1 | 11 |  | 
CCCOc1ccc(NC(=O)C2CCN(C)CC2)cc1-c1nc(CC)c(CC)c(=O)[nH]1 | 24 | 0.79 | 
CCCOc1ccc(NC(=O)CN2CCCCC2)cc1-c1nc(CC)c(CC)c(=O)[nH]1 | 9 | 1.46 | 

Now from value to compound, other results behind:

Ratio IC50 (Homo sapiens) | IC50 [8] [nM] | Structure (SMILES) | further results
7 |  | CCCOc1ccc(NC(=O)CCCNC(C)=O)cc1-c1nc(CC)c(CC)c(=O)[nH]1 | 
10 | 5.33 | CCCOc1ccc(N)cc1-c1nc(CC)c(CC)c(=O)[nH]1 | 
22 |  | CCCOc1ccc(NC(=O)C(N)=O)cc1-c1nc(CC)c(CC)c(=O)[nH]1 | 
10 | 0.54 | CCCOc1ccc(NC(=O)[C@@H]2CCCN2C(C)=O)cc1-c1nc(CC)c(CC)c(=O)[nH]1 | 
